How the values were obtained:
[1] = system: dermal tumours; test: in vivo studies in mice, effects on dermal tumours
Text: The exact mechanism of action of ingenol 3-(3,5-diethylisoxazole-4-carboxylate) continues to be investigated, but it is believed that ingenol 3-(3,5-diethylisoxazole-4-carboxylate) has a dual mechanism of action inducing cell death as well as stimulation of immune response.

[2] = Part 1: dose escalation trial, gel once daily for two consecutive days, dose limiting toxicity based on local skin reactions; format: in vivo, human
Text: Local skin reactions (LSRs) occur sometimes in the treated area. Often LSRs are quantified by a scale evaluating the following types of skin reactions: erythema, flaking/scaling, crusting, swelling, vasiculation/postulation, and erosion/ulceration which are categorized into categories 0-4 depending on the severity of the reactions. The present invention utilizes data obtained from a previous dose escalation trial, wherein maximal tolerated doses were identified.
In the trial pre-defined grades of LSRs will constitute Dose Limiting Toxicity.
Dose Limiting toxicity (DLT) is defined one or more of the following LSRs: • crusting Grade 4 • Erosion/ulceration Grade 4 • vesiculation/postulation Grade 4 or
Two or more of the following LSRs: • Crusting Grade 3 • Swelling grade 4 • Erosion/ulceration Grade 3 • vesiculation/postulation Grade 3 or • other clinically relevant signs or symptoms observed, which the Investigator judges to be counted as a DLT. Maximum tolerated dose (MTD) is declared as dose level at which less than 4 subjects out of experience a DLT of cohort of 12 subjects.
Part 1 was a dose escalation study conducted with a once daily application of trial medication for two consecutive days and continued until the MTD was identified.
Dose escalation proceeded if the safety and tolerability data of the subject up to day 8 was reviewed and considered satisfactory. The treatment consisted of once daily treatment for 2 consecutive days. Up to 5 different doses may be investigated in cohorts of 1 subject. The number of subjects in each cohort depended on the number of observed DLTs. However, the MTD was always be confirmed in a cohort of 12 subjects. […] Part 2 is a study of the efficacy of the 0.1% dose identified in part 1 in a three day regimen.
Part 1: Trial medication, ingenol 3-(3,5-diethylisoxazole-4-carboxylate) gel, will be applied to the treatment area once daily for two consecutive days until the maximum tolerated dose has been reached for each formulation. Up to five different doses of active compound in gel may be investigated in cohorts 12 subjects. […]

[3] = system: actinic keratosis; test: Part 2: open-label trial, 0.1% gel once daily for three consecutive days on trunk (except chest) and extremities; format: in vivo, human
Text: The outcome for Part 2 is safety and efficacy in a once daily application for three consecutive days on the trunk (except chest) and extremities. The efficacy in treating of the AK will be measured as reduction in AK count in the treated area of lesions which are not considered hyperkeratotic/hypertrophic.
In parallel the efficacy in treating of the AK will be measured as reduction in AK count in the treated area of lesions which are considered hyperkeratotic/hypertrophic.
The reduction in AK count will be performed at week 4 and 8 no matter the type of lesion. Also complete clearance of AKs in the treated area which are not considered hyperkeratotic/hypertrophic at week 8 will be measured.
The trial medication applied is preferably a gel. The gel formulation comprises: isopropyl alcohol, hydroxyethyl cellulose, benzyl alcohol, citric acid monohydrate, sodium citrate dehydrate and water and active compound in a 0.1% concentration. For this particular trial, the dosing is two unit dose tubes daily, each containing 0.67 g.
To qualify for part 2 of the trial, the subjects must have 5-20 clinically visible and discrete AKs within a contiguous are of approximately 250 cm^2 area on the trunk (except chest) and extremities. In addition to the requirement of 5-20 clinically typical, visible and discrete AKs within the selected treatment area, subjects may also have visible and discrete hyperkeratotic/hypertrophic lesions in this area. The subjects will be treated with a dose of 0.1% as a once daily three consecutive days treatment and followed for 8 weeks.
The trial consists of an initial part, where 18 subjects will be treated on the trunk (except chest) and extremities. […] As this is a safety trial, it is considered justified to conduct this clinical trial as an open-label, uncontrolled trial. An early safety and tolerability evaluation will be performed following the 3 days treatment. If safety and tolerability is found acceptable by the Early Data Review Committee, and additional 44 subjects will be enrolled in order to expand safety observations and obtain an estimate of treatment efficacy.
LSRs are evaluated at all visits following visit 1. AK lesion counts are performed on Visit 2, 6 and 7.
tactile) assessment of the extent of photo-damage in the treatment area with respect to 1) fine wrinkling, 2) coarse wrinkling, 3) mottled pigmentation, 4) roughness, 5) sallowness, 6) skin laxity, and 7) telangiectasia. Severity for each of these characteristics will be on a 5-point scale: None (0), Mild (1), Moderate (2), Severe (3), Extreme (4).
At Visit 7 (Week 8) the Investigator will make an overall clinical (visual and tactile) assessment of the subject's photo-damage change from baseline in the treatment area (including an integrated assessment of fine wrinkling, coarse wrinkling, mottled pigmentation, roughness, sallowness, skin laxity, and telangiectasia based on the subject's appearance at the baseline visit).
At Visit 7 (Week 8), the subjects will complete a self-assessment questionnaire evaluating the change in the 1) overall appearance of the skin and 2) overall feel of the skin after treatment. The scoring will be on a 5-point scale: Much worsened, somewhat worsened, no change, somewhat improved, much improved.
The secondary response criteria will be analysed for the full analysis set and for the per protocol analysis set. The ratio of number of AK lesions at week 8 relative to baseline, excluding lesions identified at base line as hyperkeratotic/hypertrophic lesions, will be tabulated by treatment group. Separately for each treatment group, the rate and corresponding 95% confidence interval will be estimated from a negative binomial regression on the AK count at week 8 with the log baseline value as an offset variable. The same analysis will be performed for the subgroup of lesions identified as hyperkeratotic/hypertrophic at baseline. […]

[4] = highest dose 0.1%, once daily for 2 consecutive days

CCc1noc(CC)c1C(=O)O[C@H]1C(C)=C[C@]23C(=O)[C@@H](C=C(CO)[C@@H](O)[C@]12O)[C@H]1[C@@H](C[C@H]3C)C1(C)C [ingenol 3-(3,5-diethylisoxazole-4-carboxylate)]
efficacy in eliminating dermal tumours, compared with ingenol mebutate [1]: more efficacious than ingenol mebutate
dose limiting toxicity (DLT) [2, 4]: no real DLT was identified
tolerability [2, 4]: well tolerated
tolerability with respect to LSRs and application site reaction ([2]; selected dose (0.1%), two days dosing regimen): well tolerated
side-effects ([3]; 0.1% gel, once daily three consecutive days): acceptable
reduction in AK count ([3]; 0.1% gel, once daily three consecutive days, approx. 250 cm^2 area, week 8, 62 patients): 59%
complete clearance ([3]; 0.1% gel, once daily three consecutive days, week 8): 23%
time at which side-effects maximize ([3]; 0.1% gel, once daily three consecutive days, rapid decline thereafter): 4 days
cosmetic outcome of the treatment ([3]; 0.1% gel, three day regimen): good
patients with photo damage improved ([3]; investigator assessment, fraction of patients): two-thirds
subjects reporting improvement in appearance and feel ([3]; self-assessment by subject): more than 70%

From patent US20170258769A1, “A Method for Topically Treating Actinic Keratosis on the Trunk (except chest) and Extremities with Ingenol 3-(3,5-diethylisoxazole-4-carboxylate)” (LEO Laboratories Limited, priority 2014, published 2017)
